According to ChEMBL document CHEMBL4342414, “Activity of 2,6,9-trisubstituted purines as potent PDGFRα kinase inhibitors with antileukaemic activity” (Eur J Med Chem, 2019):

Columns and labels:
[1] = Cytotoxicity against human CEM cells assessed as growth inhibition after 72 hrs by resazurin dye-based fluorescence analysis; assay type: cell-based; settings: CEM (CCRF-CEM) cells
[2] = tested on: HCC827; test: Cytotoxicity against human HCC827 cells assessed as growth inhibition after 72 hrs by resazurin dye-based fluorescence analysis; assay type: functional; settings: HCC827, 72 h
[3] = Cytotoxicity against human BJ cells assessed as growth inhibition after 72 hrs by resazurin dye-based fluorescence analysis; assay type: cell-based
[4] = tested on: K562; test: Cytotoxicity against human K562 cells assessed as growth inhibition after 72 hrs by resazurin dye-based fluorescence analysis; assay type: functional; settings: K562, 72 h
[5] = tested on: EOL1; test: Cytotoxicity against FIP1L1-PDGFRA positive human EOL-1 cells assessed as growth inhibition after 72 hrs by resazurin dye-based fluorescence analysis; assay type: functional; settings: EOL1, 72 h
[6] = Chemical stability of compound; assay type: physicochemical
[7] = Selectivity index, ratio of GI50 for human BJ cells to GI50 for FIP1L1-PDGFRA positive human EOL-1 cells after 72 hrs by resazurin dye-based fluorescence analysis
[8] = biological target: Platelet-derived growth factor receptor alpha (Homo sapiens, UniProt P16234, V561D); test: biochemical; assay type: cell-based, Sf9
Chain of Platelet-derived growth factor receptor alpha (P16234 24-1089 V561D limits assumed): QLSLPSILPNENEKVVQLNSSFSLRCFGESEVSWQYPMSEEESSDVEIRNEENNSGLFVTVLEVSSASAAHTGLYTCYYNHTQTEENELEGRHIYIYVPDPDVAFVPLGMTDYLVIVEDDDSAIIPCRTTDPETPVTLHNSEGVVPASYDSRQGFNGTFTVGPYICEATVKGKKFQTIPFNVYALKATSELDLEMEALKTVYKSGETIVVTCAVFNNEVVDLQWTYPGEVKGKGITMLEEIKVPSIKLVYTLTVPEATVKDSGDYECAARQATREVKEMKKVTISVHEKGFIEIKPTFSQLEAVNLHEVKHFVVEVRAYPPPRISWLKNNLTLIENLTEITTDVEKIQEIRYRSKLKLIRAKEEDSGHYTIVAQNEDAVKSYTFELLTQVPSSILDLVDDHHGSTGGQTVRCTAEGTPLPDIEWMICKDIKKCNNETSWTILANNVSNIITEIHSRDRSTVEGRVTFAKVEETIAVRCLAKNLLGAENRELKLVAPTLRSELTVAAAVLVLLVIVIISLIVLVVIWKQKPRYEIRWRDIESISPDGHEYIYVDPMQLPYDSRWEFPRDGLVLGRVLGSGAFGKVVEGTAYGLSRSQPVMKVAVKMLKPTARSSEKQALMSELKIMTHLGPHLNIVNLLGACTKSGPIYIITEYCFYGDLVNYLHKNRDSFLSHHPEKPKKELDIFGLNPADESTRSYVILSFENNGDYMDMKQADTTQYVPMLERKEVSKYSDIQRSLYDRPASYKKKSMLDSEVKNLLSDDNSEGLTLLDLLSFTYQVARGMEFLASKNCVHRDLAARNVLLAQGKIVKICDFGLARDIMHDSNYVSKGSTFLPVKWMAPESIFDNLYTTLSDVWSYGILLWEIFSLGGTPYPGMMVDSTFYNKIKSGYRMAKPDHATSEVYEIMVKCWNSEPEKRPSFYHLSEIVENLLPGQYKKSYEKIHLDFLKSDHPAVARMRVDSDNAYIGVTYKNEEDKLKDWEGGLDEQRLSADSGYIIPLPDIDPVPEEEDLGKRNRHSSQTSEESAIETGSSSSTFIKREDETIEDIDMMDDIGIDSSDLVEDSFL

SMILES | GI50 at 72 h [1] [µM] | GI50 [2] [µM] | GI50 at 72 h [3] [µM] | GI50 [4] [µM] | GI50 [5] [µM] | Stability [6] | RatioGI50 [7] | IC50 [8] [µM]
NCCCCNc1nc(Nc2ccc(CN3CCOCC3)cc2)c2ncn(C3CCC(O)C3)c2n1 (centres undefined) | 5.51 | 3.23 | 4.9 | 2.23 | 0.036 |  |  | 
c1csc(Oc2ccc(Nc3nc(N4CCOCC4)nc4c3ncn4C3CCCC3)cc2)n1 | > 40 | 15.4 | > 40 | > 40 | 0.347 |  |  | 
N[C@H]1CC[C@H](Nc2nc(Nc3ccc(N4CCN(Cc5ccccc5)CC4)cc3)c3ncn(CCCO)c3n2)CC1 | 4.56 | 2.38 | 16.5 | 2.67 | 0.058 |  |  | 
N[C@H]1CC[C@H](Nc2nc(Nc3ccc(-c4ccccc4O)cc3)c3ncn(C4CCCC4)c3n2)CC1 | 1.49 | 2.53 | 9.59 | 2.08 | 0.053 |  |  | 
N[C@H]1CC[C@H](Nc2nc(Nc3ccc(-n4cnnc4)cc3)c3ncn(C4CCCC4)c3n2)CC1 | 0.671 | 0.865 | 12.8 | 1.12 | 0.005 | Unstable |  | 
COc1ccc(-c2ccc(Nc3nc(N[C@H]4CC[C@H](N)CC4)nc4c3ncn4C3CCCC3)cn2)cc1 | 0.544 | 0.581 | 7.23 | 0.698 | 0.025 |  |  | 
NCCCCNc1nc(Nc2ccc(N3CCN(Cc4ccccc4)CC3)cc2)c2ncn(C3CCC(O)C3)c2n1 (centres undefined) | 3.67 | 2.29 | 13.2 | 1.63 | 0.046 |  |  | 
N[C@H]1CC[C@H](Nc2nc(Nc3ccc(CN4CCOCC4)cc3)c3ncn(C4CCC(O)C4)c3n2)CC1 (some centres undefined) | 1.42 | 0.801 | > 40 | 1.04 | 0.008 |  |  | 
N[C@H]1CC[C@H](Nc2nc(Nc3ccc(-c4cccs4)nc3)c3ncn(C4CCCC4)c3n2)CC1 | 0.477 | 0.652 | 2.94 | 0.574 | 0.021 |  |  | 
COc1ccccc1-c1ccc(Nc2nc(N[C@H]3CC[C@H](N)CC3)nc3c2ncn3C2CCCC2)cc1 | 2.35 | 2.3 | 22.8 | 2.32 | 0.117 |  |  | 
OCCCCNc1nc(Nc2ccc(Oc3nccs3)cc2)c2ncn(C3CCCC3)c2n1 | 13.4 | 6.05 | 23.5 | 6.08 | 0.489 |  |  | 
Nc1ccccc1-c1ccc(Nc2nc(N[C@H]3CC[C@H](N)CC3)nc3c2ncn3C2CCCC2)cc1 | 0.677 | 0.81 | 12.5 | 1.07 | 0.018 |  |  | 
OCCCCNc1nc(Nc2ccc(N3CCN(Cc4ccccc4)CC3)cc2)c2ncn(C3CCC(O)C3)c2n1 (centres undefined) | 9.09 | 3.96 | 23.8 | 3.73 | 0.223 |  |  | 
N[C@H]1CC[C@H](Nc2nc(Nc3ccc(-c4ccccc4O)nc3)c3ncn(C4CCCC4)c3n2)CC1 | 0.617 | 0.653 | 6.35 | 0.5 | 0.085 |  |  | 
N[C@H]1CC[C@H](Nc2nc(Nc3ccccc3CN3CCOCC3)c3ncn(CCCO)c3n2)CC1 | > 40 | > 40 | > 40 | > 40 | 10.6 |  | >4 | > 20
Cc1ccc(NC(=O)c2ccc(CN3CCN(C)CC3)cc2)cc1Nc1nccc(-c2cccnc2)n1 [IMATINIB] | 35.8 | > 40 | > 40 | 0.73 | < 0.0005 |  | >80000 | 
OCCCCNc1nc(Nc2ccc(N3CCN(Cc4ccccc4)CC3)cc2)c2ncn(CCCO)c2n1 | 27.9 | 9.8 | > 40 | 8.67 | 1.01 |  |  | 
N[C@H]1CC[C@H](Nc2nc(Nc3cccc(CN4CCOCC4)c3)c3ncn(C4CCC(O)C4)c3n2)CC1 (some centres undefined) | 1.65 | 1.67 | > 40 | 1.85 | 0.009 |  |  | 
N[C@H]1CC[C@H](Nc2nc(Nc3ccc(Oc4ccc(Br)cn4)cc3)c3ncn(C4CCCC4)c3n2)CC1 | 6.16 | 3.73 | > 40 | 6.08 | 0.122 |  |  | 
N[C@H]1CC[C@H](Nc2nc(Nc3cccc(CN4CCOCC4)c3)c3ncn(C4CCCC4)c3n2)CC1 | 1.36 | 1.19 | 14.7 | 1.28 | 0.012 |  |  | 
NCCCCNc1nc(Nc2ccc(CN3CCOCC3)cc2)c2ncn(C3CCCC3)c2n1 | 3.04 | 2.04 | 9.54 | 2.79 | 0.049 |  |  | 
